In patent US20260132129A1 (Genesis Therapeutics, Inc., priority 2022, published 2026):

Molecular target: T1, PI3Kα H1047R (T47D cells) (Homo sapiens, UniProt P42336, H1047R)
T1 construct: endogenous in cells; host or cells: T47D cells
Test: PI3Kα cellular assay: pAKT HTRF in T47D cells after EGF stimulation
Format: cell-based
Details: for T47D pAKT S473 HTRF IC50 (H1047R): T47D (H1047R) selectivity over SKBR3 (WT): selectivity of T47D (H1047R) over SKBR3 (WT) pAKT IC50; for IC50: T47D cells (PI3Kα H1047R), pAKT S473 HTRF, EGF stimulation
Procedure, shortened: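 T47D cells (PIK3CA H1047R) serum-starved 16 h, then treated 1 h at 37 °C with compound (10,000 nM top, 3-fold steps to 0.5 nM). After 10 min stimulation with 20 ng/mL EGF, cells were lysed and pAKT measured by HTRF.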

T1 sequence (P42336 whole entry H1047R): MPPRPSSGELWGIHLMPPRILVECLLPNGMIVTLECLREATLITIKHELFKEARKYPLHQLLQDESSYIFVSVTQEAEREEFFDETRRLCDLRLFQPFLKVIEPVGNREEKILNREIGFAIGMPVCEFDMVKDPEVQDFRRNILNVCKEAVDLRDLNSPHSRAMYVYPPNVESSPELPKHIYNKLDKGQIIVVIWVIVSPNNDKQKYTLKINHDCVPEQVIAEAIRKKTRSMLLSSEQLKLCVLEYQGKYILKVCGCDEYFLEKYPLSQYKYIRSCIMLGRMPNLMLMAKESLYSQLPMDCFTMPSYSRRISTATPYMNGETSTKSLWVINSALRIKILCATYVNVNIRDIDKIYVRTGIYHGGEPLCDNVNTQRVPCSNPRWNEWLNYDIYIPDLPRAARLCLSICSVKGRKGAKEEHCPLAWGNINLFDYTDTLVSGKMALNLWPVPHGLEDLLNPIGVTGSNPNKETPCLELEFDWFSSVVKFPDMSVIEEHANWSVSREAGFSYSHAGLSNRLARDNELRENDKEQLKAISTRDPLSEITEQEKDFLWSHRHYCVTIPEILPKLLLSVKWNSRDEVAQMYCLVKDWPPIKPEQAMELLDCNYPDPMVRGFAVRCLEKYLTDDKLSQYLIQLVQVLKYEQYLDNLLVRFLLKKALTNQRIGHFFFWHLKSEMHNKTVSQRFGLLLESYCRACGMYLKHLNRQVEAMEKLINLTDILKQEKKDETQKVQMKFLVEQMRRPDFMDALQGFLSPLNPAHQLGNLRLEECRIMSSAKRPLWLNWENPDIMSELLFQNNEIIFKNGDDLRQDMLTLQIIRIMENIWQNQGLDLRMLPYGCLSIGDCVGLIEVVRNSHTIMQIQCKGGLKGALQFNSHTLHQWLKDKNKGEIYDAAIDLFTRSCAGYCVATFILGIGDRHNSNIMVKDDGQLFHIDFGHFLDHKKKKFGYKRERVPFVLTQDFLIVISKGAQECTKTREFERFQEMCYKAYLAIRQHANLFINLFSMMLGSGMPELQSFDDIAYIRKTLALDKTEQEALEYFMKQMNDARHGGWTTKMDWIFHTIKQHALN
T1 sequence (P27986 whole entry partner): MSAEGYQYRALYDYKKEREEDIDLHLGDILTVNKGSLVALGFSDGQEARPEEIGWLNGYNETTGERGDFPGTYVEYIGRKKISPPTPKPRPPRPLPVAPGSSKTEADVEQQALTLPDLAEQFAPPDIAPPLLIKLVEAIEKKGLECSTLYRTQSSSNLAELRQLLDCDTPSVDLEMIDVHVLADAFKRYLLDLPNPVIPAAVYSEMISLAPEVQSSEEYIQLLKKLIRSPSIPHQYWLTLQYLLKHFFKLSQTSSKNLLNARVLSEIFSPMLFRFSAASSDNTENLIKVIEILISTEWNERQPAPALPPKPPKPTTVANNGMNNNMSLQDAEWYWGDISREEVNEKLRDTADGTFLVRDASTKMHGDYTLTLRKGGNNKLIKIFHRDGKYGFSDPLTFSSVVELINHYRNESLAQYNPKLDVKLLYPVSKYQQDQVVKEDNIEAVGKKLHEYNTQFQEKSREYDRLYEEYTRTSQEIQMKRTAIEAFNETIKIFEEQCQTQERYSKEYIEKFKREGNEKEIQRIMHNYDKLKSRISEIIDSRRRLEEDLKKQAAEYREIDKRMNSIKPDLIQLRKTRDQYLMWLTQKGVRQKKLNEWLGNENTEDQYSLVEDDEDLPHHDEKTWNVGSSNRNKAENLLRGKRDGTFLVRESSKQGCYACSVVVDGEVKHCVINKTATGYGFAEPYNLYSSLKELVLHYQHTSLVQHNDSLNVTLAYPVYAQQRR

Compound | T47D pAKT S473 HTRF IC50 (H1047R): T47D (H1047R) selectivity over SKBR3 (WT) | IC50 [nM]
Cc1cc([C@H](C)Nc2ccccc2C(=O)O)c2nc(-c3ccc4c(c3)c(C)nn4C)cc(=O)n2c1 [Compound 697] | C (C denotes ≤5-fold) | –
Cc1cc([C@H](C)Nc2ccccc2-c2ccnnc2)c2nc(N3C[C@@H](C)O[C@@H](C)C3)cc(=O)n2c1 [Compound 700] | A (A denotes >20-fold) | –
Cc1cc([C@@H](C)Nc2ccccc2C(=O)O)c2nc(-c3ccc4c(c(N)nn4C)c3C)cc(=O)n2c1 [Compound 702] | B (B denotes 20-fold≥value>5-fold) | 500 to 2000
Cc1cc([C@H](C)Nc2ccccc2C(=O)O)c2nc(-c3cc4c(N)nn(C)c4cc3C)cc(=O)n2c1 [Compound 705] | C (C denotes ≤5-fold) | > 2000
Cc1cc(C(C)Nc2ccccc2C(=O)O)c2nc(-c3ccc4c(c(N)nn4C)c3C)c(C)c(=O)n2c1 (centres unmarked) [Compound 706] | B (B denotes 20-fold≥value>5-fold) | 500 to 2000
Cc1cc([C@H](C)Nc2cccc3c2C(=O)NCC3)c2nc(N3CCOCC3)cc(=O)n2c1 [Compound 714] | C (C denotes ≤5-fold) | –
Cc1cc([C@@H](C)Nc2ccccc2-c2ccnnc2)c2nc(C3Cc4ccccc4C3)cc(=O)n2c1 [Compound 718] | C (C denotes ≤5-fold) | –
CCn1nc(N)c2c(C)c(-c3cc(=O)n4cc(C)cc([C@H](C)Nc5ccccc5C(=O)O)c4n3)ccc21 [Compound 723] | C (C denotes ≤5-fold) | > 2000
Cc1cc(C(C)Nc2ccccc2C(=O)O)c2nc(-c3ccc4c(c3)c(C(F)(F)F)nn4C)cc(=O)n2c1 (centres unmarked) [Compound 724] | A (A denotes >20-fold) | 100 to 500
Cc1cc(C(C)Nc2ccccc2C(=O)O)c2nc(-c3ccc4c(c3)c(C)nn4C)cc(=O)n2c1 (centres unmarked) [Compound 725] | A (A denotes >20-fold) | < 100
Cc1cc(C(C)Nc2ccccc2C(=O)O)c2nc(-c3ccc4c(c3)CCN4CC(N)=O)cc(=O)n2c1 (centres unmarked) [Compound 726] | B (B denotes 20-fold≥value>5-fold) | –
Cc1cc([C@H](C)Nc2ccccc2S(N)(=O)=O)c2nc(N3C[C@@H](C)O[C@@H](C)C3)cc(=O)n2c1 [Compound 731] | C (C denotes ≤5-fold) | > 2000
Cc1cc([C@H](C)Nc2ccccc2C(=O)O)c2nc(-c3cc4c(N)nn(C)c4cc3C)c(C)c(=O)n2c1 [Compound 733] | C (C denotes ≤5-fold) | –
Cc1cc(C(C)Nc2ccccc2C(=O)O)c2nc(-c3ccc4c(c3)c(C3CC3)nn4C)cc(=O)n2c1 (centres unmarked) [Compound 736] | A (A denotes >20-fold) | 100 to 500
Cc1cc([C@H](C)Nc2ccccc2C(=O)O)c2nc(-c3ccc4c(ccn4CC(N)=O)c3)cc(=O)n2c1 [Compound 741] | C (C denotes ≤5-fold) | –
Cc1cc([C@H](C)Nc2cccc3[nH]nnc23)c2nc(N3CCOCC3)cc(=O)n2c1 [Compound 745] | C (C denotes ≤5-fold) | –

More lines, now with the values ahead:

T47D pAKT S473 HTRF IC50 (H1047R): T47D (H1047R) selectivity over SKBR3 (WT) | IC50 [nM] | Compound
C (C denotes ≤5-fold) | – | Cc1cc(C(C)Nc2ccccc2-c2ccnnc2)c2nc(N3CC(C)OC(C)C3)cc(=O)n2c1 (centres unmarked) [Compound 698]
C (C denotes ≤5-fold) | – | Cc1cc([C@@H](C)Nc2ccccc2-c2ccnnc2)c2nc(N3CC(C)OC(C)C3)cc(=O)n2c1 (some centres unmarked) [Compound 699]
C (C denotes ≤5-fold) | > 2000 | Cc1cc(C(C)Nc2ccccc2C(=O)O)c2nc(-c3ccc4c(c(N)nn4C)c3C)cc(=O)n2c1 (centres unmarked) [Compound 701]
C (C denotes ≤5-fold) | > 2000 | Cc1cc([C@H](C)Nc2ccccc2C(=O)O)c2nc(-c3ccc4c(c(N)nn4C)c3C)cc(=O)n2c1 [Compound 703]
C (C denotes ≤5-fold) | > 2000 | Cc1cc([C@@H](C)Nc2ccccc2C(=O)O)c2nc(-c3cc4c(N)nn(C)c4cc3C)cc(=O)n2c1 [Compound 704]
C (C denotes ≤5-fold) | > 2000 | Cc1cc([C@H](C)Nc2ccccc2C(=O)O)c2nc(N3C[C@@H](C)C(F)(F)[C@@H](C)C3)cc(=O)n2c1 [Compound 712, 2-(((S)-1-(2-((3S,5R)-4,4-difluoro-3,5-dimethylpiperidin-1-yl)-7-methyl-4-oxo-4H-pyrido[1,2-a]pyrimidin-9-yl)ethyl)amino)benzoic acid]
B (B denotes 20-fold≥value>5-fold) | 500 to 2000 | Cc1cc(C(C)Nc2ccccc2C(=O)O)c2nc(-c3ccc4c(c(N)nn4C)c3C)c(C)c(=O)n2c1 (centres unmarked) [Compound 720]
– | 100 to 500 | Cc1cc(C(C)Nc2ccccc2C(=O)O)c2nc(-c3ccc(F)cc3)c(C)c(=O)n2c1 (centres unmarked) [Compound 721]
A (A denotes >20-fold) | < 100 | CCn1nc(N)c2cc(-c3cc(=O)n4cc(C)cc([C@@H](C)Nc5ccccc5C(=O)O)c4n3)ccc21 [Compound 722]
C (C denotes ≤5-fold) | > 2000 | Cc1cc([C@@H](C)Nc2ccccc2C(=O)O)c2nc(N3CCC(C)(C)CC3)cc(=O)n2c1 [Compound 727]
C (C denotes ≤5-fold) | > 2000 | Cc1cc([C@H](C)Nc2ccccc2C(=O)O)c2nc(N3CCC(C)(C)CC3)cc(=O)n2c1 [Compound 728]
A (A denotes >20-fold) | 100 to 500 | Cc1cc(C(C)Nc2ccccc2S(N)(=O)=O)c2nc(N3C[C@@H](C)O[C@@H](C)C3)cc(=O)n2c1 (some centres unmarked) [Compound 729]
C (C denotes ≤5-fold) | – | Cc1cc([C@@H](C)Nc2ccccc2C(=O)O)c2nc(-c3cc4c(N)nn(C)c4cc3C)c(C)c(=O)n2c1 [Compound 732]
C (C denotes ≤5-fold) | – | Cc1cc(C(C)CNc2ccccc2C(=O)O)c2nc(N3CCOCC3)cc(=O)n2c1 (centres unmarked) [Compound 735]
A (A denotes >20-fold) | 100 to 500 | Cc1cc([C@@H](C)Nc2ccccc2C(=O)O)c2nc(-c3ccc4c(c3)c(C(F)(F)F)nn4C)cc(=O)n2c1 [Compound 737]
C (C denotes ≤5-fold) | > 2000 | Cc1cc([C@H](C)Nc2ccccc2C(=O)O)c2nc(-c3ccc4c(c3)c(C(F)(F)F)nn4C)cc(=O)n2c1 [Compound 738]
A (A denotes >20-fold) | – | Cc1cc(C(C)Nc2cccc3[nH]nnc23)c2nc(N3CCOCC3)cc(=O)n2c1 (centres unmarked) [Compound 743]
B (B denotes 20-fold≥value>5-fold) | – | Cc1cc([C@@H](C)Nc2cccc3[nH]nnc23)c2nc(N3CCOCC3)cc(=O)n2c1 [Compound 744]
